Experimental data reported in US10143688B2, “Mesylic acid salt of acylthiourea compound, crystal of the same, and process for producing these” (priority 2015, dated 2018).

Key:
[1] = Solubility measurement (solubility measuring method of The Japanese Pharmacopoeia); settings: 37° C.
[2] = Solid stability test (purity by liquid chromatography, XRD, TG-DTA after storage); format: physicochemical; settings: 1 month at 40° C. (open system), 40° C. (humidity, 75%), or 60° C. (open system)
Method: An examination by liquid chromatography was made under the following test conditions.
Apparatus: Hitachi L-2455
Mobile phase A: 10 mM aqueous Na2HPO4 solution (pH, 6.5)
Mobile phase B: acetonitrile
Column: GL Science Inertsil ODS-3; 4.6×150 mm; S=5 μm
Measuring wavelength: 220 nm
(open system), 40° C. (humidity, 75%), or 60° C. (open system). Thereafter, the crystals were examined for purity by liquid chromatography. As a result, the change in purity through the test was 0.1% or less under all those conditions.

CNC(=O)c1cc2c(Oc3ccc(NC(=S)NC(=O)Cc4ccccc4)cc3F)ccnc2cc1OC.CS(=O)(=O)O [Example 1, mesylic acid salt of 4-(2-fluoro-4-(3-(2-phenylacetyl)thioureido)phenoxy)-7-methoxy-N-methylquinoline-6-carboxamide]
Solubility, Taurocholic acid ([1]; 20-mM aqueous taurocholic acid solution): 120 µg/mL | Solubility, FeSSIF ([1]; FeSSIF): 11 µg/mL | Solubility, Dissolution-test second liquid ([1]; dissolution-test second liquid according to The Japanese Pharmacopoeia): 1.0 µg/mL | Solubility, Purified water ([1]; purified water): 35 µg/mL | change in examinations by XRD and TG-DTA [2]: no marked change | change in purity through the test ([2]; all those conditions): ≤ 0.1%
